In publication PMC7799360, “Reprogramming immunosuppressive myeloid cells facilitates immunotherapy for colorectal cancer” (EMBO Molecular Medicine, 2020):

How the values were obtained:
[1] = molecular target: T1, human EP2 (Homo sapiens, UniProt P43116); test: PGE2-induced calcium flux assay in CHO-Gα16 cells; type: cell-based
T1 construct: host or cells: CHO-Gα16

[2] = 14-day repeat-dose toxicity study in Sprague Dawley rats; type: in vivo; conditions: for Nasal cavity: Normal: animals normal/examined
Experimental: (three males and three females). […]
orally administrated once daily for 14 days. Abnormal behaviors and mortality
were observed every day and b ody weight was recorded every three days.
Animals were sacrificed on day 15, and blood parameters and organ
morphology were recorded. […]

[3] = test system: MC38 tumors; test: MC38 colorectal cancer model in C57BL/6 mice; type: in vivo, mouse; conditions: MC38, 75 mg/kg p.o. daily
Experimental: Syngeneic mouse tumor‐bearing models were established as described previously (Tan et al., 2018). Tumor cells (5 × 10^5 ‐ 2 × 10^6) were suspended in 100 μl PBS and implanted subcutaneously into the flank of mice. Mice were randomized into different treatment groups when tumor volumes reached 100‐200 mm^3. V = L×W^2 × 0.52, where L is the longest diameter, and W is the shortest diameter. Tumor size and body weight were recorded every second or third day. Mouse survival was analyzed using the Kaplan–Meier method.
Single agent or combination treatment was designed as follows: TP‐16 (37.5, 75, 150 mg/kg) or celecoxib (100 mg/kg) was formulated in 0.5% carboxymethylcellulose sodium (CMC‐Na, Sangon Biotech, Shanghai, China) and administered via oral gavage daily. In vivo anti‐PD1 antibody (clone RMP1‐14, BioXCell, West Lebanon, NH, USA) and rat IgG2a isotype control (clone 2A3, BioXCell) were diluted in sterile PBS and administered intraperitoneally at a dose of 50 μg twice weekly.

[4] = test system: HUVEC; test: Cell viability (MTS); type: cell-based, human; conditions: 100 µM
Excerpt: The murine colon cancer (CT26), murine breast cancer (4T1), and human colon cancer (HCT116, HCT8, HT29, and DLD1) cell lines were obtained from American Type Culture Collection (ATCC). The murine cell lines of melanoma (B16F10), pancreatic cancer (Pan02), and colon cancer (MC38), Chinese hamster ovary (CHO) cell line, and human embryonic kidney cell lines (HEK293 and HEK293T) were purchased from the National Infrastructure of Cell Line Resource (Shanghai, China). Primary human endothelial cells (HUVECs) were kindly provided by Dr. Xinli Wang (Baylor College of Medicine, Houston, TX, USA) and cultured in endothelial cell medium (ScienCell, San Diego, CA, USA) according to the manufacturer’s instructions. The CHO‐Gα16 cell line was established in our previous study and maintained in DMEM/F12 medium containing puromycin (4 μg/ml) (Wu et al., 2018). Cell lines were maintained in vendor recommended growth medium supplemented with 10% FBS (Gibco, Waltham, MA, USA) and 1% penicillin/streptomycin solution (Gibco) at 37°C ins a humidified atmosphere (5% CO2). All cell lines were authenticated using short tandem repeat analysis. All cell lines were confirmed to be mycoplasma‐free by polymerase chain reaction (PCR) analysis. Cell viability was determined using CellTiter 96 ® Aqueous One Solution (Promega, Madison, WI).
Appendix Figure S1. […]. The cytotoxicity curves
. Mouse cancer cells: CT26
. Human colon cancer cells: HCT116 (E),
HCT8 (F), HT29 (G) and DLD1 (H). Human normal cell line: HUVECs (I). Cell
viability was measured by MTS. Data are presented as mean ± SEM derived
from three independent experiments (n=3).
(1 picture or pasted object on this page, not shown here)

[5] = test system: mouse bone marrow cells; test: GM-CSF/IL-6-induced bone marrow MDSC differentiation assay; type: cell-based; conditions: GM-CSF/IL-6/PGE2, 0.1-10 μM TP-16, 6 days
Experimental: Single‐cell suspensions of mouse BM cells were prepared by filtering femurs and tibias of 6‐week‐old female BALB/c mice through 40‐μm cell strainers (Falcon). These suspensions were treated with red blood cell lysis buffer and replated in conditioned medium. Monocyte differentiation, MDSC induction, and macrophage polarization were analyzed by FACS analysis (BD Biosciences) with FlowJo software.
For the MDSC induction assay, purified BM cells were cultured in RPMI1640 medium stimulated with recombinant mouse GM‐CSF (40 ng/ml, Peprotech) and IL‐6 (40 ng/ml, Peprotech) for 6 days to generate bone marrow‐derived MDSCs (Svoronos et al., 2017); the medium was refreshed every 3 days. Vehicle or PGE2 (10 nM) ± TP‐16 was added simultaneously on day 0 for FACS analysis of BM‐derived MDSCs. For quantitative PCR (qPCR) analysis of MDSCs, differentiated MDSCs were treated with vehicle or PGE2 (10 nM) ± TP‐16 for 12 h.

[6] = female, Sprague-Dawley, rat, in vivo, 100 mg/kg/day, 14 days
[7] = male, Sprague-Dawley, rat, in vivo, 100 mg/kg/day, 14 days

T1 sequence (P43116 whole entry): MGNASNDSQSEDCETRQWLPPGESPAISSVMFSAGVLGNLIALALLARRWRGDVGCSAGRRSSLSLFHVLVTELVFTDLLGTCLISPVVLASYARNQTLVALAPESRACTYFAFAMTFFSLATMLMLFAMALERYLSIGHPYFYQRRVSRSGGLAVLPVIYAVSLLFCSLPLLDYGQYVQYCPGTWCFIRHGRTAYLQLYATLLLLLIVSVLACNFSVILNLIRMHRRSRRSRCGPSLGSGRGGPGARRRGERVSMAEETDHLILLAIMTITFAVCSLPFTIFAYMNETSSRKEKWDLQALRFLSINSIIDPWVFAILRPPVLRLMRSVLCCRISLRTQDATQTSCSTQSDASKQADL

With C[C@H](NC(=O)c1c(Cc2ccc(F)cc2)sc2c1CCOC2)c1ccc(C(=O)O)cc1 [TP-16] as the molecule, how does the IC50 [1] read?
The IC50 was greater than 10 µM.

And the “Nasal cavity: Normal” value ([2]; female rats, 100 mg/kg/day, 14 days)?
The value was 3/3.

What about the “Brain: Normal” value [2, 6] of the same molecule?
Its value is 3/3.

And the “Cervical lymph node: Normal” value [2, 6]?
The value was 3/3.

And the “Colon: Normal” value [2, 6]?
Its value is 3/3.

What about the “Duodenum: Normal” value [2, 6] of the same molecule?
The value was 3/3.

What about the “Esophagus: Normal” value [2, 6] of the same molecule?
Its value is 3/3.

What about the “Eye: Normal” value [2, 6] of the same molecule?
Its value is 3/3.

And the “Femur/Bone marrow: Normal” value [2, 6]?
Its value is 3/3.

And the “Harderian gland: Normal” value [2, 6]?
The value was 3/3.

What about the “Heart: Normal” value [2, 6] of the same molecule?
Its value is 3/3.

And the “Ileum: Normal” value [2, 6]?
Its value is 3/3.

What about the “Jejunum: Normal” value [2, 6] of the same molecule?
Its value is 3/3.

What about the “Kidney: Normal” value [2, 6] of the same molecule?
The value was 3/3.

What about the “Liver: Normal” value [2, 6] of the same molecule?
Its value is 3/3.

What about the “Lung: Normal” value [2, 6] of the same molecule?
The value was 3/3.

What about the “Mesenteric lymph node: Normal” value [2, 6] of the same molecule?
The value was 3/3.

And the “Ovary: Normal” value [2, 6]?
The value was 3/3.

What about the “Pancreas: Normal” value [2, 6] of the same molecule?
Its value is 3/3.

What about the “Parathyroid gland: Normal” value [2, 6] of the same molecule?
The value was 3/3.

What about the “Pituitary gland: Normal” value [2, 6] of the same molecule?
The value was 3/3.

And the “Preputial/Clitoral gland: Normal” value [2, 6]?
The value was 3/3.

What about the “Rectum: Normal” value [2, 6] of the same molecule?
The value was 3/3.

And the “Salivary gland: Normal” value [2, 6]?
The value was 3/3.

What about the “Skin/ Mammary gland: Normal” value [2, 6] of the same molecule?
The value was 3/3.

And the “Spleen: Normal” value [2, 6]?
Its value is 3/3.

And the “Stomach: Normal” value [2, 6]?
The value was 3/3.

What about the “Testis: Normal” value [2, 6] of the same molecule?
The value was 3/3.

What about the “Thymus: Normal” value [2, 6] of the same molecule?
Its value is 3/3.

And the “Thyroid gland: Normal” value [2, 6]?
The value was 3/3.

What about the “Trachea: Normal” value [2, 6] of the same molecule?
Its value is 3/3.

What about the “Urinary bladder: Normal” value [2, 6] of the same molecule?
The value was 3/3.

What about the “Uterus: Normal” value [2, 6] of the same molecule?
The value was 3/3.

And the “Vagina: Normal” value [2, 6]?
Its value is 3/3.

And the “Nasal cavity: Normal” value ([2]; male rats, 100 mg/kg/day, 14 days)?
The value was 3/3.

And the “Brain: Normal” value [2, 7]?
Its value is 3/3.

What about the “Cervical lymph node: Normal” value [2, 7] of the same molecule?
Its value is 3/3.

What about the “Colon: Normal” value [2, 7] of the same molecule?
Its value is 3/3.

And the “Duodenum: Normal” value [2, 7]?
The value was 3/3.

And the “Epididymis: Normal” value [2, 7]?
The value was 3/3.

What about the “Esophagus: Normal” value [2, 7] of the same molecule?
The value was 3/3.

What about the “Eye: Normal” value [2, 7] of the same molecule?
The value was 3/3.

What about the “Femur/Bone marrow: Normal” value [2, 7] of the same molecule?
Its value is 3/3.

And the “Harderian gland: Normal” value [2, 7]?
Its value is 3/3.

What about the “Heart: Normal” value [2, 7] of the same molecule?
The value was 3/3.

What about the “Ileum: Normal” value [2, 7] of the same molecule?
The value was 3/3.

And the “Jejunum: Normal” value [2, 7]?
Its value is 3/3.

And the “Kidney: Normal” value [2, 7]?
Its value is 3/3.

And the “Liver: Normal” value [2, 7]?
The value was 3/3.

And the “Lung: Normal” value [2, 7]?
Its value is 3/3.

And the “Mesenteric lymph node: Normal” value [2, 7]?
The value was 3/3.

What about the “Pancreas: Normal” value [2, 7] of the same molecule?
The value was 3/3.

What about the “Parathyroid gland: Normal” value [2, 7] of the same molecule?
The value was 3/3.

And the “Pituitary gland: Normal” value [2, 7]?
Its value is 3/3.

What about the “Preputial/Clitoral gland: Normal” value [2, 7] of the same molecule?
The value was 3/3.

And the “Prostate: Normal” value [2, 7]?
Its value is 3/3.

And the “Rectum: Normal” value [2, 7]?
Its value is 3/3.

And the “Salivary gland: Normal” value [2, 7]?
The value was 3/3.

And the “Seminal vesicle: Normal” value [2, 7]?
Its value is 3/3.

What about the “Skin/ Mammary gland: Normal” value [2, 7] of the same molecule?
Its value is 3/3.

What about the “Spleen: Normal” value [2, 7] of the same molecule?
Its value is 3/3.

And the “Stomach: Normal” value [2, 7]?
Its value is 3/3.

What about the “Testis: Normal” value [2, 7] of the same molecule?
The value was 3/3.

And the “Thymus: Normal” value [2, 7]?
The value was 3/3.

What about the “Thyroid gland: Normal” value [2, 7] of the same molecule?
Its value is 3/3.

What about the “Trachea: Normal” value [2, 7] of the same molecule?
Its value is 3/3.

What about the “Urinary bladder: Normal” value [2, 7] of the same molecule?
Its value is 3/3.

And the “body weight during 14-day treatment” value ([2]; rat, in vivo, po, 100 mg/kg)?
Its value is “without statistically significant weight loss”.

What about the “hematological analysis, overall finding” value ([2]; rat, in vivo, po, 100 mg/kg) of the same molecule?
The value was “no adverse changes”.

And the “organ morphology, overall finding” value ([2]; rat, in vivo, po, 100 mg/kg)?
The value was “no abnormalities”.

What about the “%TGI” value [3] of the same molecule?
The value was 50.6%.

What about the “effect on cell viability” value [4] of the same molecule?
The value was “did not affect the viability”.

What about the “PGE2-dependent expansion of both mMDSCs and PMN-MDSCs” value [5] of the same molecule?
Its value is “significantly inhibited”.
